Data taken from patent EP4721737A1, “USE OF PHARMACEUTICAL COMPOSITION COMPRISING COMPOUND HAVING BIS(AZANYLYLIDENE) SULFONYL STRUCTURE FOR TREATING ANEMIA-RELATED DISEASES” (Scinnohub Pharmaceutical Co., Ltd., priority 2023, dated 2024).

Tests used:
[1] = molecular target: T1, PKR in ex vivo red blood cells from healthy individuals (Homo sapiens, UniProt P30613); assay: ex vivo pyruvate kinase (PKR) activity experiment, red blood cells of healthy individuals; format: cell-based; conditions: 3 hours co-cultivation
T1 construct: endogenous in cells; host or cells: human red blood cells isolated from fresh peripheral blood of healthy individuals
T1 sequence (P30613 whole entry): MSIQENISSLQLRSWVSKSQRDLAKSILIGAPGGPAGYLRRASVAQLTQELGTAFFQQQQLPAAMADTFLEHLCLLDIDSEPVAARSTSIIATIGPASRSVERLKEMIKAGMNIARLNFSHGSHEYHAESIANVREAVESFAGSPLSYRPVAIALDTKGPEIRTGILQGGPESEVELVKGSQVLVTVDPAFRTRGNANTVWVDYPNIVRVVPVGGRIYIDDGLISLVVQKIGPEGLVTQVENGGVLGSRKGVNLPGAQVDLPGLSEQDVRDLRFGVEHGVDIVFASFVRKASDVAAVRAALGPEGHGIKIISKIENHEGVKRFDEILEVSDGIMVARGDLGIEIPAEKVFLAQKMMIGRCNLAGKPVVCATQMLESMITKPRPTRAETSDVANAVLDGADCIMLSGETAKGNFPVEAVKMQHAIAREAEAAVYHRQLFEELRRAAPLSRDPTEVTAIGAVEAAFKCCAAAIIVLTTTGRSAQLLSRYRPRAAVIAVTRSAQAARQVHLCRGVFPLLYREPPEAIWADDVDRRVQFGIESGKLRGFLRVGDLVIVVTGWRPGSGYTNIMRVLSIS
Method in brief: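 Washed, Percoll-purified human RBCs at 1 × 10^7 cells/mL were exposed to compound (final 1–3000 nM, 1% DMSO) for 3 h at 37°C, then lysed. PKR activity in lysate was followed kinetically by fluorescence at 540/590 nm over 1 h. Slope versus 1% DMSO control gave % activation; AC50 from variable-slope fit.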

[2] = system: wild-type mice; assay: in vivo efficacy study in wild-type mice (HGB, ATP, 2,3-DPG in whole blood); conditions: C57BL/6J, whole blood 2-3 hours after last administration; for HGB: vehicle control 14.9; for ATP: vehicle control 452.0; for 2,3-DPG: vehicle control 1727.8
Protocol: The effects of the compound on wild-type mice were evaluated by detecting the concentrations of HGB, ATP, and 2,3-DPG in the whole blood of mice.
• i. On the day of administration, the compound was weighed, then the vehicle was added to prepare the administration solution: vehicle: 5% DMSO + 10% Solutol + 85% Saline
i. Wild-type mice were randomly divided into groups based on body weight, with 8 mice per group.
• i. Whole blood sample was collected 2-3 hours after the last administration of the test animal for HGB assay.
• i. An LC-MS/MS method was established to determine the ATP and 2,3-DPG contents in whole blood sample 2-3 hours after the last administration of the test animal.

[3] = 2.5 mg/kg oral gavage twice a day 14 days
[4] = 7.5 mg/kg oral gavage twice a day 14 days
[5] = 25 mg/kg oral gavage twice a day 14 days
[6] = 15 mg/kg oral gavage twice a day 14 days
[7] = 50 mg/kg oral gavage twice a day 14 days
[8] = 75 mg/kg oral gavage twice a day 14 days

Structure (SMILES)	AC50 [1]	HGB [2, 3]	ATP [2, 3]	2,3-DPG [2, 3]	HGB [2, 4]	ATP [2, 4]	2,3-DPG [2, 4]	HGB [2, 5]	ATP [2, 5]	2,3-DPG [2, 5]	HGB [2, 6]	ATP [2, 6]	2,3-DPG [2, 6]	HGB [2, 7]	ATP [2, 7]	2,3-DPG [2, 7]	HGB [2, 8]	ATP [2, 8]	2,3-DPG [2, 8]
N#Cc1ccc(S(=O)(=O)N2CC(=C3CN(C(=O)[C@H](CO)c4ccccc4)C3)C2)cc1 [Compound 65, (S)-4-(1'-(3-hydroxy-2-phenylpropionyl)-1',4'-dihydro-2H,2'H-[3,3'-diazetidinylidene]-1(4H)-ylsulfonyl)benzonitrile]	< 100 nM	15.1 g/dL	481.5 µg/mL	1417.4 µg/mL	14.9 g/dL	486.5 µg/mL	1417.4 µg/mL	14.9 g/dL	475.9 µg/mL	1363.0 µg/mL									
O=C([C@H](CO)c1ccc(F)cc1F)N1CC(=C2CN(S(=O)(=O)c3ccccn3)C2)C1 [Compound 83, (S)-2-(2,4-difluorophenyl)-3-hydroxy-1-(1'-(pyridin-2-ylsulfonyl)-1',4'-dihydro-2H,2'H-[3,3'-diazetidinylidene]-1(4H)-yl)propan-1-one]											15.3 g/dL	476.9 µg/mL	1454.1 µg/mL	15.4 g/dL	472.1 µg/mL	1444.5 µg/mL	14.6 g/dL	474.1 µg/mL	1441.8 µg/mL
